Experimental data taken from US20090312288A1 (TAKEDA PHARMACEUTICAL COMPANY LIMITED, priority 2008, published 2009).

Biological target: Aurora B/INCENP (Homo sapiens, UniProt Q96GD4)
Assay: Determination of inhibition of AIK: Aurora B/INCENP direct fluorescence polarization (IMAP) assay
Type: biochemical
Conditions: 10 uM ATP, 0.8 nM Aurora B/INCENP; values given as bins; read-out: IC50 of Exemplified Compounds Against AIK B

Aurora B/INCENP, sequence (Q96GD4 whole entry): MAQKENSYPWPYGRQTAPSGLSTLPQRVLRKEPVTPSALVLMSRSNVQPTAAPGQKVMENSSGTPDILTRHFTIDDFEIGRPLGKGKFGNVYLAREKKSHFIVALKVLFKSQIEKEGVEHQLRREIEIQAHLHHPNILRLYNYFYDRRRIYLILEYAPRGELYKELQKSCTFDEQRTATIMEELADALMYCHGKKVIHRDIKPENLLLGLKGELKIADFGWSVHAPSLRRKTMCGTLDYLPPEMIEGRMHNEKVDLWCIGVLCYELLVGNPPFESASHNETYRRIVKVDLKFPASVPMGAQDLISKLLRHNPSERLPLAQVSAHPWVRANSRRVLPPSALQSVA
Aurora B/INCENP, sequence (Q9NQS7 whole entry partner): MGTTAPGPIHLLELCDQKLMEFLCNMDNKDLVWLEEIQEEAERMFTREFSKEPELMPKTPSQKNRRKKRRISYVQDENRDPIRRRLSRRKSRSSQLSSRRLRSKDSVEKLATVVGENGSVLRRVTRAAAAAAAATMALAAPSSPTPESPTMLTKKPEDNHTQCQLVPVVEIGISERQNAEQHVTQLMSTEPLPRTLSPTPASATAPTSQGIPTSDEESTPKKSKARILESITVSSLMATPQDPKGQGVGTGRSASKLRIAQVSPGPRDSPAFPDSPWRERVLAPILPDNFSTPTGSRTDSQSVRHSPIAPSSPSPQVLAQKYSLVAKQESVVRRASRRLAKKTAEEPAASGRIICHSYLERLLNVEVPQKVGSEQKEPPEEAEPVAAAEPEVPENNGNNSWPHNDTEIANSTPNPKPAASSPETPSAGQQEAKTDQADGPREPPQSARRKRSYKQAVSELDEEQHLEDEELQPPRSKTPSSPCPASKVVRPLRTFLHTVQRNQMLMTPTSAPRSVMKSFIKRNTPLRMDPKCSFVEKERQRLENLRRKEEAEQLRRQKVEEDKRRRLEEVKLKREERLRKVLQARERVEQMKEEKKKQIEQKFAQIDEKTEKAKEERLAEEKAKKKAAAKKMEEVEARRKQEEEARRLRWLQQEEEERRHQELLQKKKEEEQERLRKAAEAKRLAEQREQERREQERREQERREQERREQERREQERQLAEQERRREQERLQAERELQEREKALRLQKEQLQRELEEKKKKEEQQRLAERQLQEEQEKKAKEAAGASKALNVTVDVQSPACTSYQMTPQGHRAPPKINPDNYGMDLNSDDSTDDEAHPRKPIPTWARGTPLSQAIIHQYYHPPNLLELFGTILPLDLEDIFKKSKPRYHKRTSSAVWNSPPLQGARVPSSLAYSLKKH

Row | SMILES | IC50 [nM]
1 | COc1ccc(-c2cccc(C(=O)NCCO)c2)c2c1[nH]c1ncc(C)cc12 [Compound 168, N-(2-hydroxyethyl)-3-(8-methoxy-3-methyl-9H-pyrido[2,3-b]indol-5-yl)benzamide] | 8.6 to 13
2 | CCS(=O)(=O)c1cccc(-c2ccc(OCC3CCN(C)CC3)c3[nH]c4ncc(C)cc4c23)c1 [Compound 177, 5-(3-(ethylsulfonyl)phenyl)-3-methyl-8-((1-methylpiperidin-4-yl)methoxy)-9H-pyrido[2,3-b]indole] | 8.6 to 13
3 | Cc1cnc2[nH]c3c(OCC4CCN(C)CC4)ccc(-c4cccc(C(=O)NC5CC5)c4)c3c2c1 [Compound 178, N-cyclopropyl-3-(3-methyl-8-((1-methylpiperidin-4-yl)methoxy)-9H-pyrido[2,3-b]indol-5-yl)benzamide] | > 13
4 | Cc1cnc2[nH]c3c(OCC4CCN(C)CC4)ccc(-c4cccc(S(=O)(=O)C5CC5)c4)c3c2c1 [Compound 179, 5-(3-(cyclopropylsulfonyl)phenyl)-3-methyl-8-((1-methylpiperidin-4-yl)methoxy)-9H-pyrido[2,3-b]indole] | 5.6 to 8.5
5 | CNS(=O)(=O)c1cccc(-c2ccc(OCC3CCN(C)CC3)c3[nH]c4ncc(C)cc4c23)c1 [Compound 180, N-methyl-3-(3-methyl-8-((1-methylpiperidin-4-yl)methoxy)-9H-pyrido[2,3-b]indole-5-yl)benzenesulfonamide] | 8.6 to 13
6 | Cc1cnc2[nH]c3c(OCC4CCN(C)CC4)ccc(-c4cccc(S(=O)(=O)N(C)C)c4)c3c2c1 [Compound 181, N,N-dimethyl-3-(3-methyl-8-((1-methylpiperidin-4-yl)methoxy)-9H-pyrido[2,3-b]indole-5-yl)benzenesulfonamide] | 8.6 to 13
7 | Cc1cnc2[nH]c3c(OCC4CCN(C)CC4)ccc(-c4cccc(NC(=O)C5CC5)c4)c3c2c1 [Compound 182, N-(3-(3-methyl-8-((1-methylpiperidin-4-yl)methoxy)-9H-pyrido[2,3-b]indol-5-yl)phenyl)cyclopropanecarboxamide] | 5.6 to 8.5
8 | CCSc1cccc(-c2ccc(OCC3CCN(C)CC3)c3[nH]c4ncc(C)cc4c23)c1 [Compound 183] | > 13
9 | CCOc1cccc(-c2ccc(OCC3CCN(C)CC3)c3[nH]c4ncc(C)cc4c23)c1 [Compound 184, 5-(3-ethoxyphenyl)-3-methyl-8-((1-methylpiperidin-4-yl)methoxy)-9H-pyrido[2,3-b]indole] | > 13
10 | CCS(=O)(=O)c1cccc(-c2ccc(OCC3CCNCC3)c3[nH]c4ncc(C)cc4c23)c1 [Compound 185, 5-(3-(ethylsulfonyl)phenyl)-3-methyl-8-(piperidin-4-ylmethoxy)-9H-pyrido[2,3-b]indole] | 4 to 5.5
11 | Cc1cnc2[nH]c3c(OCCCN(C)C)ccc(-c4cccc(S(=O)(=O)C5CC5)c4)c3c2c1 [Compound 194, 3-(5-(3-(cyclopropylsulfonyl)phenyl)-3-methyl-9H-pyrido[2,3-b]indol-8-yloxy)-N,N-dimethylpropan-1-amine] | 4 to 5.5
12 | Cc1cnc2[nH]c3c(OCCCN(C)C)ccc(-c4cccc(NC(=O)C5CC5)c4)c3c2c1 [Compound 195, N-(3-(8-(3-(dimethylamino)propoxy)-3-methyl-9H-pyrido[2,3-b]indol-5-yl)phenyl)cyclopropanecarboxamide] | > 13
13 | CCS(=O)(=O)c1cccc(-c2ccc(OCC3CCN(C)CC3)c3[nH]c4ncc(Cl)cc4c23)c1 [Compound 200, 3-chloro-5-(3-(ethylsulfonyl)phenyl)-8-((1-methylpiperidin-4-yl)methoxy)-9H-pyrido[2,3-b]indole] | 5.6 to 8.5
14 | CCS(=O)(=O)c1cccc(-c2ccc(OCC3CCNCC3)c3[nH]c4ncc(Cl)cc4c23)c1 [Compound 201, 3-chloro-5-(3-(ethylsulfonyl)phenyl)-8-(piperidin-4-ylmethoxy)-9H-pyrido[2,3-b]indole] | < 4
15 | CCS(=O)(=O)c1cccc(-c2ccc(OCC3CCN(C)CC3)c3[nH]c4ncc(C(F)(F)F)cc4c23)c1 [Compound 202, 5-(3-(ethylsulfonyl)phenyl)-8-((1-methylpiperidin-4-yl)methoxy)-3-(trifluoromethyl)-9H-pyrido[2,3-b]indole] | 8.6 to 13
16 | CCS(=O)(=O)c1cccc(-c2ccc(OCC3CCN(C)CC3)c3[nH]c4ncc(C#N)cc4c23)c1 [Compound 203, 5-(3-(ethylsulfonyl)phenyl)-8-((1-methylpiperidin-4-yl)methoxy)-9H-pyrido[2,3-b]indole-3-carbonitrile] | 5.6 to 8.5
17 | CCS(=O)(=O)c1cccc(-c2cc(F)c(OCCN(C)C)c3[nH]c4ncc(C)cc4c23)c1 [Compound 204, 2-(5-(3-(ethylsulfonyl)phenyl)-7-fluoro-3-methyl-9H-pyrido[2,3-b]indol-8-yloxy)-N,N-dimethylethanamine] | 8.6 to 13

Continued, values first:

Row | IC50 [nM] | SMILES
18 | < 4 | CCNS(=O)(=O)c1cccc(-c2ccc(OC)c3[nH]c4ncc(C)cc4c23)c1 [Compound 170, N-ethyl-3-(8-methoxy-3-methyl-9H-pyrido[2,3-b]indol-5-yl)benzenesulfonamide]
19 | 5.6 to 8.5 | CCOc1ccc(-c2cccc(S(=O)(=O)CC)c2)c2c1[nH]c1ncc(C)cc12 [Compound 171, 8-ethoxy-5-(3-(ethylsulfonyl)phenyl)-3-methyl-9H-pyrido[2,3-b]indole]
20 | 5.6 to 8.5 | CCS(=O)(=O)c1cccc(-c2ccc(OC(F)F)c3[nH]c4ncc(C)cc4c23)c1 [Compound 172, 8-(difluoromethoxy)-5-(3-(ethylsulfonyl)phenyl)-3-methyl-9H-pyrido[2,3-b]indole]
21 | 5.6 to 8.5 | CCS(=O)(=O)c1cccc(-c2ccc(OCC(F)(F)F)c3[nH]c4ncc(C)cc4c23)c1 [Compound 173, 5-(3-(ethylsulfonyl)phenyl)-3-methyl-8-(2,2,2-trifluoroethoxy)-9H-pyrido[2,3-b]indole]
22 | > 13 | CCS(=O)(=O)c1cccc(-c2ccc(OC[C@H]3CCN(C)C3)c3[nH]c4ncc(C)cc4c23)c1 [Compound 186, (S)-5-(3-(ethylsulfonyl)phenyl)-3-methyl-8-((1-methylpyrrolidin-3-yl)methoxy)-9H-pyrido[2,3-b]indole]
23 | > 13 | CCS(=O)(=O)c1cccc(-c2ccc(OC[C@@H]3CCN(C)C3)c3[nH]c4ncc(C)cc4c23)c1 [Compound 187, (R)-5-(3-(ethylsulfonyl)phenyl)-3-methyl-8-((1-methylpyrrolidin-3-yl)methoxy)-9H-pyrido[2,3-b]indole]
24 | 8.6 to 13 | CCS(=O)(=O)c1cccc(-c2ccc(OC[C@@H]3CCCN3C)c3[nH]c4ncc(C)cc4c23)c1 [Compound 188, (S)-5-(3-(ethylsulfonyl)phenyl)-3-methyl-8-((1-methylpyrrolidin-2-yl)methoxy)-9H-pyrido[2,3-b]indole]
25 | 8.6 to 13 | CCS(=O)(=O)c1cccc(-c2ccc(OC[C@H]3CCNC3)c3[nH]c4ncc(C)cc4c23)c1 [Compound 189, (S)-5-(3-(ethylsulfonyl)phenyl)-3-methyl-8-(pyrrolidin-3-ylmethoxy)-9H-pyrido[2,3-b]indole]
26 | > 13 | CCS(=O)(=O)c1cccc(-c2ccc(OC[C@@H]3CCNC3)c3[nH]c4ncc(C)cc4c23)c1 [Compound 190, (R)-5-(3-(ethylsulfonyl)phenyl)-3-methyl-8-(pyrrolidin-3-ylmethoxy)-9H-pyrido[2,3-b]indole]
